Assay results from US8114880B2, “Piperidine or piperazine substituted tetrahydro-naphthalene-1-carboxylic acid MTP inhibiting compounds” (Janssen Pharmaceutica N.V., priority 2006, dated 2012).

Legend:
[1] = system: HepG2 cells; test: Quantification of the secretion of ApoB; format: cell-based; conditions: Homo sapiens, HepG2, 24 h, 24 hours of incubation, pIC50 = -log IC50
Procedure: HepG2 cells were cultured in 24-well plates in MEM Rega 3 containing 10% fetal calf serum. At 70% confluency, the medium was changed and the test compound or carrier (DMSO, 0.4% final concentration) was added. After 24 hours of incubation, the medium was transferred to Eppendorf tubes and cleared by centrifugation. A sheep antibody directed against either apoB was added to the supernatant and the mixture was kept at 8° C. for 24 hours. Then, rabbit anti-sheep antibody was added and the immune complex was allowed to precipitate for 24 hours at 8° C. The immunoprecipitate was pelleted by centrifugation for 25 minutes at 1320 g and washed twice with a buffer containing 40 mM Mops, 40 mM NaH2PO4, 100 mM NaF, 0.2 mM DTT, 5 mM EDTA, 5 mM EGTA, 1% Triton-X-100, 0.5% sodium deoxycholate (DOC), 0.1% SDS, 0.2 μM leupeptin and 0.2 μM PMSF. Radioactivity in the pellet was quantified by liquid scintillation counting. The IC50 values are usually converted to pIC50 values (=−log IC50 value) for ease of use.

[2] = biological target: MTP (Homo sapiens, UniProt P55157); test: MTP assay (triglyceride transfer from donor to acceptor vesicles); format: biochemical; conditions: MTP activity, percent triglyceride transfer from donor to acceptor vesicles, 37° C.
Summary of the method: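 Radiolabelled triglyceride transfer from donor vesicles (phosphatidylcholine, 7.5 mol % cardiolipin, 0.25 mol % glycerol tri[1-^14C]-oleate) to phosphatidylcholine acceptor vesicles with BSA, pH 7.5 Tris buffer; compounds in DMSO (0.13% final), 5 min preincubation at 37° C before MTP addition. Donor vesicles removed on DEAE-52; acceptor-supernatant ^14C counts give percent transfer.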

MTP, sequence (P55157 19-894, species assumed): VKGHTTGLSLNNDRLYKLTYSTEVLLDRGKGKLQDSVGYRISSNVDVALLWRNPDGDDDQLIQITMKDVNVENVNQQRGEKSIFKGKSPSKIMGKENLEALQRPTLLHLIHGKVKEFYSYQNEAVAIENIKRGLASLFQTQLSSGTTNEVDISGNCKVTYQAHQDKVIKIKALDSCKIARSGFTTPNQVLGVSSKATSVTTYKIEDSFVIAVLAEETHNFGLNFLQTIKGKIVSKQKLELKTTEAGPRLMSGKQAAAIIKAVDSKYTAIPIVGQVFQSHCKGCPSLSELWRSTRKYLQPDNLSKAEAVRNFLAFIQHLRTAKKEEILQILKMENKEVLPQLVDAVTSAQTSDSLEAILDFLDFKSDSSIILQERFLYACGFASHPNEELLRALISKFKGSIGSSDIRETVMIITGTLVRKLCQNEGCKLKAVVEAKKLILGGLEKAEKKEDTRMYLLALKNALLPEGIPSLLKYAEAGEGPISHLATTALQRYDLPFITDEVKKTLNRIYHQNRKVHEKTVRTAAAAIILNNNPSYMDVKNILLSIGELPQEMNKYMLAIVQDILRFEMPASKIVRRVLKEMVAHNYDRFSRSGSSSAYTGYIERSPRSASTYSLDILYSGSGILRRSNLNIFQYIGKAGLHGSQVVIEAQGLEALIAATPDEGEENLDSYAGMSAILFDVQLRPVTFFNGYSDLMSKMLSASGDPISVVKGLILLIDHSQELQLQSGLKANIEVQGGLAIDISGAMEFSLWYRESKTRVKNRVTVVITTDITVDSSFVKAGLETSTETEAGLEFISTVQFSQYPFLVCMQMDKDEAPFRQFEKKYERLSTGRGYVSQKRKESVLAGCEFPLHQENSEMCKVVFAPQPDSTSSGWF
MTP, sequence (P07237 18-508 partner, species assumed): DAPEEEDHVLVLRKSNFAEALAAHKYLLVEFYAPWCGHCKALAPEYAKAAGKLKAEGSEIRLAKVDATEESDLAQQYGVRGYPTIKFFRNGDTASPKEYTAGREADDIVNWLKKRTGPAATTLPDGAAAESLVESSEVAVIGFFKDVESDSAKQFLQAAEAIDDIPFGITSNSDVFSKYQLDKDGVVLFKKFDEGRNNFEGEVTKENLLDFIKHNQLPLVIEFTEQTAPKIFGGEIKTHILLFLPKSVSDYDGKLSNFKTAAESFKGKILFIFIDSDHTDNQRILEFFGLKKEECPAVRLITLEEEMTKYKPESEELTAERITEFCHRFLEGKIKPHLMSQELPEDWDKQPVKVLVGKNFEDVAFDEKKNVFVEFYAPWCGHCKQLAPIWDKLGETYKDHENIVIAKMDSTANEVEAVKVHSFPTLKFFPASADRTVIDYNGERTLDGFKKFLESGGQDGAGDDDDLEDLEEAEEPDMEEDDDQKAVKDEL

| SMILES | IC50 [1] [µM] | IC50 [2] [µM] |
| --- | --- | --- |
| CCOC(=O)C(Cc1c[nH]c2ccccc12)NC(=O)[C@@]1(c2ccccc2)CC[C@H](C(=O)N2CCC(NC(=O)c3ccccc3OC)CC2)c2ccccc21 (stereo partly drawn) [Co. No. 86] | 0.653 | 0.0665 |
| COC(=O)CCNC(=O)[C@@]1(c2ccccc2)CC[C@H](C(=O)N2CCC(NC(=O)c3cccn(C)c3=O)CC2)c2ccccc21 [Co. No. 138] | > 1 | 0.596 |
| CCOC(=O)NCCCC[C@H](NC(=O)[C@@]1(c2ccccc2)CC[C@H](C(=O)N2CCC(NC(=O)c3ccccc3OC)CC2)c2ccccc21)C(=O)OCC [Co. No. 211] | 0.0957 | 0.0061 |
| CC(C)OC(=O)CCCCCNC(=O)[C@@]1(c2ccccc2)CC[C@H](C(=O)N2CCC(NC(=O)c3cccn(C)c3=O)CC2)c2ccccc21 [Co. No. 229] | > 1 | 0.00757 |
| CCCOC(=O)CCNC(=O)[C@@]1(c2ccccc2)CC[C@H](C(=O)N2CCC(NC(=O)c3ccccc3OC)CC2)c2ccccc21 [Co. No. 279] | 0.0141 | 0.0015 |
| COC(=O)CNC(=O)[C@@]1(c2ccccc2)CC[C@H](C(=O)N2CCC(NC(=O)c3ccccc3OC)CC2)c2ccccc21 [Co. No. 64] | 0.0178 | 0.00387 |
| CCOC(=O)CCNC(=O)[C@@]1(c2ccccc2)CC[C@H](C(=O)N2CCC(NC(=O)c3cccn(C)c3=O)CC2)c2ccccc21 [Co. No. 159] | > 1 | 0.129 |
| C=CCOC(=O)[C@]1(c2ccccc2)CC[C@@H](C(=O)N2CCC(NC(=O)c3ccccc3-c3ccc(C(F)(F)F)cc3)CC2)c2ccccc21 [Co. No. 19] | 0.00757 | 0.00463 |
| COc1ccccc1C(=O)NC1CCN(C(=O)[C@H]2CC[C@@](C(=O)NCCCCCC(=O)OC(C)C)(c3ccccc3)c3ccccc32)CC1 [Co. No. 208] | 0.0577 | 0.00186 |
| COc1ncccc1C(=O)NC1CCN(C(=O)[C@H]2CC[C@@](C(=O)NCCC(=O)O)(c3ccccc3)c3ccccc32)CC1 [Co. No. 258] | > 1 | 1.8 |
| CCOC(=O)[C@@]1(c2ccccc2)CC[C@H](C(=O)N2CCC(NC(=O)c3ccccc3OC)CC2)c2ccccc21 [Co. No. 34] | 0.00379 | 0.00116 |
| CCOC(=O)C[C@H](NC(=O)[C@@]1(c2ccccc2)CC[C@H](C(=O)N2CCC(NC(=O)c3ccccc3OC)CC2)c2ccccc21)C(=O)OCC [Co. No. 72] | > 1 | 0.0107 |
| CCNC(=O)[C@]1(c2ccccc2)CC[C@@H](C(=O)N2CCC(NC(=O)c3ccccc3C)CC2)c2ccccc21 [Co. No. 22] | 0.155 | 0.0289 |
| Cn1cccc(C(=O)NC2CCN(C(=O)[C@H]3CC[C@@](C(=O)N[C@@H](CCCCNC(=O)OC(C)(C)C)C(=O)OC(C)(C)C)(c4ccccc4)c4ccccc43)CC2)c1=O [Co. No. 172] | > 1 | 0.0336 |
| COC(=O)CCNC(=O)[C@]1(c2ccccc2)CC[C@@H](C(=O)N2CCC(NC(=O)c3ccccc3OC)CC2)c2ccccc21 [Co. No. 256] | > 1 | > 1 |
| COC(=O)CCNC(=O)[C@@]1(c2ccccc2)CC[C@H](C(=O)N2CCC(NC(=O)c3cccnc3OC)CC2)c2ccccc21 [Co. No. 254] | 0.0171 | 0.003 |
| CCOC(=O)[C@H](CC(C)C)NC(=O)[C@@]1(c2ccccc2)CC[C@H](C(=O)N2CCC(NC(=O)c3ccccc3OC)CC2)c2ccccc21 [Co. No. 70] | > 1 | 0.0353 |
| CCOC(=O)CCCNC(=O)[C@@]1(c2ccccc2)CC[C@H](C(=O)N2CCC(NC(=O)c3cccn(C)c3=O)CC2)c2ccccc21 [Co. No. 225] | > 1 | > 0.1 |
| COC(=O)CCNC(=O)[C@@]1(c2ccccc2)CC[C@H](C(=O)N2CCC(NC(=O)c3cccnc3O)CC2)c2ccccc21 [Co. No. 255] | > 1 | 0.585 |
| CCCOc1cccnc1C(=O)NC1CCN(C(=O)[C@@H]2CC[C@](C(=O)OC)(c3ccccc3)c3ccccc32)CC1 [Co. No. 58] | 0.00204 | 0.149 |
| COC(=O)CCCCCNC(=O)[C@@]1(c2ccccc2)CC[C@H](C(=O)N2CCC(NC(=O)c3ccccc3OC)CC2)c2ccccc21 [Co. No. 207] | > 1 | 0.00259 |
| COc1ccccc1C(=O)NC1CCN(C(=O)[C@H]2CC[C@@](C(=O)N[C@@H](CCC(=O)OC(C)(C)C)C(=O)OC(C)(C)C)(c3ccccc3)c3ccccc32)CC1 [Co. No. 108] | 0.0748 | 0.00918 |
| Cn1cccc(C(=O)NC2CCN(C(=O)[C@H]3CC[C@@](C(=O)NCCCC(=O)OC(C)(C)C)(c4ccccc4)c4ccccc43)CC2)c1=O [Co. No. 226] | > 1 | 0.111 |

| SMILES | IC50 [1] [µM] | IC50 [2] [µM] |
| --- | --- | --- |
| CCOC(=O)C1CCCN(C(=O)[C@@]2(c3ccccc3)CC[C@H](C(=O)N3CCC(NC(=O)c4ccccc4OC)CC3)c3ccccc32)C1 (stereo partly drawn) [Co. No. 84] | > 1 | 0.228 |
| COc1ccccc1C(=O)NC1CCN(C(=O)[C@@H]2CC[C@](C(N)=O)(c3ccccc3)c3ccccc32)CC1 (single isomer, unassigned) [Co. No. 43] | 0.267 | 0.0904 |
| COC(=O)CCNC(=O)[C@]1(c2ccccc2)CC[C@@H](C(=O)N2CCC(NC(=O)c3ccccc3N3CCOCC3)CC2)c2ccccc21 [Co. No. 263] | 0.0644 | 0.0157 |
| COC(=O)[C@]1(c2ccccc2)CC[C@@H](C(=O)N2CCC(NC(=O)c3cccc(OC)c3OC)CC2)c2ccccc21 [Co. No. 49] | 0.638 | 0.0181 |
| CCCNC(=O)C1(c2ccccc2)CCC(C(=O)N2CCC(NC(=O)c3ccccc3)CC2)c2ccccc21 (stereo not drawn) [Co. No. 4] | 0.228 | 0.0424 |
| COc1ccccc1C(=O)NC1CCN(C(=O)[C@H]2CC[C@@](C(=O)NCCCC(=O)OC(C)(C)C)(c3ccccc3)c3ccccc32)CC1 [Co. No. 203] | 0.03 | 0.00205 |
| COc1ccccc1C(=O)NC1CCN(C(=O)[C@H]2CC[C@@](C(=O)NCCCCC(=O)OC(C)C)(c3ccccc3)c3ccccc32)CC1 [Co. No. 206] | 0.0424 | 0.00296 |
| CCOC(=O)CNC(=O)[C@]1(c2ccccc2)CC[C@@H](C(=O)N2CCC(NC(=O)c3ccccc3OC)CC2)c2ccccc21 [Co. No. 48] | 9.77 | 0.0133 |
| CCNC(=O)[C@]1(c2ccccc2)CC[C@@H](CN2CCC(NC(=O)c3ccccc3OC)CC2)c2ccccc21 [Co. No. 15] | 0.186 | 0.0502 |
| COc1ccccc1C(=O)NC1CCN(C(=O)[C@H]2CC[C@@](C(=O)N[C@@H](C(=O)OC(C)(C)C)C(C)C)(c3ccccc3)c3ccccc32)CC1 [Co. No. 103] | 0.382 | 0.061 |
| COc1ccccc1C(=O)NC1CCN(C(=O)[C@@H]2CC[C@@](C(N)=O)(c3ccccc3)c3ccccc32)CC1 (single isomer, unassigned) [Co. No. 41] | 0.0358 | > 10 |
| CCOC(=O)[C@]1(c2ccccc2)CC[C@@H](C(=O)N2CCC(NC(=O)c3cc(Cl)c(N)cc3OC)CC2)c2ccccc21 [Co. No. 24] | 0.202 | 0.0548 |
| CCOC(=O)[C@]1(c2ccccc2)CC[C@@H](C(=O)N2CCC(NC(=O)c3ccccc3)CC2)c2ccccc21 [Co. No. 33] | > 1 | > 1 |
| COc1ccccc1C(=O)NC1CCN(C(=O)[C@H]2CC[C@@](C(N)=O)(c3ccccc3)c3ccccc32)CC1 (single isomer, unassigned) [Co. No. 44] | 0.106 | > 1 |
| COC(=O)[C@]1(c2ccccc2)CC[C@@H](C(=O)N2CCC(NC(=O)c3ccccc3OC(F)F)CC2)c2ccccc21 [Co. No. 54] | 0.0658 | 0.0104 |
| CCOC(=O)[C@@]1(c2ccccc2)CC[C@H](C(=O)N2CCC(NC(=O)c3ccccc3)CC2)c2ccccc21 (single isomer, unassigned) [Co. No. 32] | 0.00752 | 0.0019 |
| COc1ccccc1C(=O)NC1CCN(C(=O)[C@H]2CC[C@@](C(=O)NCCC(=O)OC(C)(C)C)(c3ccccc3)c3ccccc32)CC1 [Co. No. 88] | 0.0206 | 0.00215 |
| CCOC(=O)CNC(=O)[C@@]1(c2ccccc2)CC[C@H](C(=O)N2CCC(NC(=O)c3ccccc3OC)CC2)c2ccccc21 [Co. No. 47] | 0.0272 | 0.00237 |
| COc1ccccc1C(=O)NC1CCN(C(=O)[C@H]2CC[C@@](C(=O)N[C@@H](Cc3ccccc3)C(=O)OC(C)(C)C)(c3ccccc3)c3ccccc32)CC1 [Co. No. 112] | 0.136 | 0.018 |
| CCOC(=O)[C@@H](NC(=O)[C@@]1(c2ccccc2)CC[C@H](C(=O)N2CCC(NC(=O)c3ccccc3OC)CC2)c2ccccc21)c1ccccc1 [Co. No. 80] | 0.548 | 0.0701 |
| COC(=O)[C@H](CCCCNC(=O)OC(C)(C)C)NC(=O)[C@@]1(c2ccccc2)CC[C@H](C(=O)N2CCC(NC(=O)c3ccccc3OC)CC2)c2ccccc21 [Co. No. 75] | 0.0202 | 0.00224 |
| COC(=O)CCNC(=O)[C@@]1(c2ccccc2)CC[C@H](C(=O)N2CCC(NC(=O)c3ccccc3N3CCN(C)CC3)CC2)c2ccccc21 [Co. No. 272] | 0.67 | 0.0509 |
